Measurements published in patent US20170150719A1, “FUNGICIDAL PYRAZOLES AND THEIR MIXTURES” (E I DU PONT DE NEMOURS AND COMPANY, priority 2010, published 2017).
Marks after values point to notes of the source that are not given here.

Columns and labels:
Septoria tritici = assay: Test F: wheat leaf blotch, preventive spray on wheat seedlings, visual disease rating; format: in vivo; parameters: Test F rating (disease control), value marked *: concentration or dose not given beside the values; conditions: for Test F rating (disease control) / Test F rating (% disease control): 100 = 100% disease control; for Test F rating (disease control): 0 = no disease control relative to the controls; for Test F rating (% disease control): preventive spray, rating without asterisk
Text: (§1) A hyphen (-) indicates no test results.

[1] = test system: Puccinia recondita f. sp. tritici; assay: Test G: wheat leaf rust, spray after inoculation (curative) on wheat seedlings, visual disease rating; format: in vivo; conditions: for Test G rating (disease control) / Test G rating (% disease control): 100 = 100% disease control; for Test G rating (disease control): 0 = no disease control; for Test G rating (% disease control): spray after inoculation, rating without asterisk
Text: as §1

[2] = test system: Puccinia recondita f. sp. tritici; assay: Test H: wheat leaf rust, preventive spray on wheat seedlings, visual disease rating; conditions: wheat leaf rust; for Test H rating (disease control): sprayed the day before inoculation, 0 = no disease control; for Test H rating (disease control) / Test H rating (% disease control): 100 = 100% disease control; for Test H rating (% disease control): preventive spray, rating without asterisk
Botrytis cinerea = assay: Test A: tomato Botrytis, preventive spray on tomato seedlings, visual disease rating; conditions: tomato Botrytis; for Test A rating (disease control) / Test A rating (% disease control): 100 = 100% disease control; for Test A rating (disease control): 0 = no disease control relative to the controls; for Test A rating (% disease control): preventive spray, 0 = no control relative to controls, rating without asterisk
Experimental: (§2) General protocol for preparing test suspensions for Tests A-I: the test compounds were first dissolved in acetone in an amount equal to 3% of the final volume and then suspended at the desired concentration (in ppm) in acetone and purified water (50/50 mix by volume) containing 250 ppm of the surfactant Trem® 014 (polyhydric alcohol esters). The resulting test suspensions were then used in Tests A-I. Each test was conducted in triplicate, and the results were averaged. Spraying a 200 ppm test suspension to the point of run-off on the test plants was the equivalent of a rate of about 800 g/ha. Unless otherwise indicated, the rating values indicate a 200 ppm test suspension was used. (An asterisk “*” next to the rating value indicates a 40 ppm test suspension was used.)
The test suspension was sprayed to the point of run-off on tomato seedlings. The following day the seedlings were inoculated with a spore suspension of Botrytis cinerea (the causal agent of tomato Botrytis) and incubated in saturated atmosphere at 20° C. for 48 h, and then moved to a growth chamber at 24° C. for 3 additional days, after which time visual disease ratings were made.

Alternaria solani = assay: Test B: tomato early blight, preventive spray on tomato seedlings, visual disease rating; conditions: tomato early blight; for Test B rating (disease control) / Test B rating (% disease control): 100 = 100% disease control; for Test B rating (disease control): 0 = no disease control relative to the controls; for Test B rating (% disease control): preventive spray, rating without asterisk
Experimental: as §2
The test suspension was sprayed to the point of run-off on tomato seedlings. The following day the seedlings were inoculated with a spore suspension of Alternaria solani (the causal agent of tomato early blight) and incubated in a saturated atmosphere at 27° C. for 48 h, and then moved to a growth chamber at 20° C. for 5 days, after which time visual disease ratings were made.

[3] = test system: Blumeria graminis f. sp. tritici; assay: Test I: wheat powdery mildew, preventive spray on wheat seedlings, visual disease rating; conditions: wheat powdery mildew; for Test I rating (disease control) / Test I rating (% disease control): 100 = 100% disease control; for Test I rating (disease control): 0 = no disease control relative to the controls; for Test I rating (% disease control): preventive spray, rating without asterisk
Septoria nodorum = assay: Test E: Septoria glume blotch, preventive spray on wheat seedlings, visual disease rating; conditions: for Test E rating (disease control) / Test E rating (% disease control): 100 = 100% disease control; for Test E rating (disease control): 0 = no disease control relative to the controls; for Test E rating (% disease control): Septoria glume blotch on wheat, preventive spray, rating without asterisk
[4] = rating marked with asterisk (*), other test condition, not explained in the text shown

| SMILES | Test F rating (disease control) (Septoria tritici) | Test G rating (disease control) ([1]; sprayed after inoculation) | Test H rating (disease control) [2] | Test A rating (disease control) (Botrytis cinerea) | Test B rating (disease control) (Alternaria solani) | Test I rating (disease control) [3] | Test E rating (disease control) (Septoria nodorum; Septoria glume blotch) | also measured |
| --- | --- | --- | --- | --- | --- | --- | --- | --- |
| Cc1nn(C)c(Oc2ccc(Cl)cc2F)c1-c1ccc(F)cc1Cl [compound 158] |  |  |  |  |  |  |  | Test F rating (disease control), value marked * (Septoria tritici; [4]): 99* %; Test G rating (disease control), value marked * ([1]; sprayed after inoculation, rating marked with asterisk (*), not explained in the text shown): 37* %; Test H rating (disease control), value marked * ([2]; preventive, rating marked with asterisk (*), not explained in the text shown): 98* %; Test A rating (disease control), value marked * (Botrytis cinerea; [4]): 100* %; Test B rating (disease control), value marked * (Alternaria solani; [4]): 80* %; Test I rating (disease control), value marked * ([3]; rating marked with asterisk (*), not explained in the text shown): 96* %; Test E rating (disease control), value marked * (Septoria nodorum; Septoria glume blotch, rating marked with asterisk (*), other test condition, not explained in the text shown): 0* % |
| Cc1nn(C)c(Nc2ccc(F)cc2F)c1-c1c(F)cccc1F [compound 49] | 98% | 0% | 83% | 100% | 100% | 100% | 80% |  |
| Cc1nn(C)c(Oc2ccc(C#N)cc2F)c1-c1c(F)cccc1Cl [compound 116] | 100% | 0% | 100% | 100% | 33% | 100% | 99% |  |
| Cc1nn(C)c(Nc2c(F)cccc2F)c1-c1ccc(F)cc1F [compound 71] | 100% | 0% | 99% | 99% | 99% | 100% | 96% |  |
| Cc1nn(C)c(Nc2c(F)cc(Cl)cc2F)c1-c1ccc(Cl)cc1F [compound 230] |  |  |  |  |  |  |  | Test F rating (% disease control) (Septoria tritici): 100%; Test G rating (% disease control) [1]: 0%; Test H rating (% disease control) [2]: 94%; Test A rating (% disease control) (Botrytis cinerea): 40%; Test B rating (% disease control) (Alternaria solani): 0%; Test I rating (% disease control) [3]: 95%; Test E rating (% disease control) (Septoria nodorum): 0% |
| COc1ccc(Nc2c(-c3ccc(F)cc3Cl)c(C)nn2C)c(Cl)c1 [compound 101] | 100% | 99% | 100% | 100% | 93% | 100% | 0% |  |
| Cc1nn(C)c(Nc2ccc(F)cc2F)c1-c1ccc(F)cc1F [compound 64] | 100% | 0% | 97% | 99% | 99% | 100% | 0% |  |
| Cc1nn(C)c(Nc2c(F)cc(F)cc2F)c1-c1c(F)cc(C#N)cc1F [compound 35] | 99% | 0% | 100% | 100% | 100% | 94% | 60% |  |
| Cc1nn(C)c(Nc2c(F)cc(F)cc2Cl)c1-c1ccc(Cl)cc1Cl [compound 156] | 100% | 31% | 99% | 100% | 99% | 99% | 73% |  |
| COc1ccc(-c2c(C)nn(C)c2Nc2c(F)cc(F)cc2Cl)c(Cl)c1 [compound 203] |  |  |  |  |  |  |  | Test F rating (% disease control) (Septoria tritici): 100%; Test G rating (% disease control) [1]: 79%; Test H rating (% disease control) [2]: 100%; Test A rating (% disease control) (Botrytis cinerea): 95%; Test B rating (% disease control) (Alternaria solani): 100%; Test I rating (% disease control) [3]: 98%; Test E rating (% disease control) (Septoria nodorum): 73% |
| Cc1nn(C)c(Nc2c(F)cc(C#N)cc2F)c1-c1c(F)cccc1Cl [compound 57] | 100% | 0% | 99% | 97% | 100% | 99% | 73% |  |
| Cc1nn(C)c(Nc2c(F)cc(F)cc2Cl)c1-c1ccc(Cl)cc1F [compound 228] |  |  |  |  |  |  |  | Test F rating (% disease control) (Septoria tritici): 100%; Test G rating (% disease control) [1]: 0%; Test H rating (% disease control) [2]: 96%; Test A rating (% disease control) (Botrytis cinerea): 68%; Test B rating (% disease control) (Alternaria solani): 40%; Test I rating (% disease control) [3]: 81%; Test E rating (% disease control) (Septoria nodorum): 0% |
| COc1cc(F)c(Nc2c(-c3c(F)cc(OC)cc3F)c(C)nn2C)c(F)c1 [compound 21] | 99% | 99% | 96% | 100% | 100% | 94% | 89% |  |
| Cc1nn(C)c(Nc2c(F)cc(F)cc2F)c1-c1ccccc1F [compound 53] | 100% | 0% | 95% | 97% | 99% | 99% | 87% |  |
| Cc1nn(C)c(Nc2ccc(F)cc2F)c1-c1c(Cl)cccc1Cl [compound 113] | 100% | 0% | 98% | 100% | 0% | 100% | 0% |  |
| COc1cc(F)c(Nc2c(-c3c(F)cc(C#N)cc3F)c(C)nn2C)c(F)c1 [compound 36] | 99% | 0% | 41% | 99% | 0% | 0% | 0% |  |
| COc1cc(F)c(-c2c(C)nn(C)c2Oc2c(F)cc(Cl)cc2F)c(F)c1 [Compound 15] | 98% | 82% | 100% | 98% | 100% | 100% | 89% |  |
| Cc1nn(C)c(Nc2ccc(F)cc2I)c1-c1ccc(F)cc1Cl [compound 181] |  |  |  |  |  |  |  | Test F rating (% disease control) (Septoria tritici): 100%; Test G rating (% disease control) [1]: 99%; Test H rating (% disease control) [2]: 99%; Test A rating (% disease control) (Botrytis cinerea): 100%; Test B rating (% disease control) (Alternaria solani): 99%; Test I rating (% disease control) [3]: 100%; Test E rating (% disease control) (Septoria nodorum): 99% |
